According to patent US20260273074A1, “FERRITIN-TARGETING PROTACS AND METHODS OF INDUCING PYROPTOSIS” (Wisconsin Alumni Research Foundation, priority 2023, published 2026):
Where two headings read alike, the source gives them in different places.

How the values were obtained:
[1] = Solubility in the ITC buffer; assay type: physicochemical; conditions: 20 mM Tris-HCl pH 8.5, 130 mM NaCl, 0.05% DMSO
B16F10 cells [2] = test: Cell viability evaluation by CCK-8 assay; conditions: for IC50: Mus musculus, read-out: IC50 of cell viability
Experimental: Cell viability evaluation: The cell viability of B16F10 cells treated with ferritin degraders with or without various inhibitors was evaluated by CCK-8 assay. Briefly, 5×10^3 cells were seeded in 96-well plates and cultured for 24 h for attachment. Then the medium in the corresponding wells, except the control, was replaced with 100 μL of medium containing the indicated degrader formulations with concentrations of 0.008, 0.04, 0.2, 1, and 5 μM. After incubation for 24 or 48 h, CCK-8 reagent was added and interacted with cells at 37° C. for 1 h. The absorbance was measured by a microplate reader (Infinite M Plex) at the detection wavelength of 450 nm.
For blocking assays with Z-VAD, NSCI, and VX-765, 5×10^3 cells were seeded in 96-well plates and cultured 24 h for attachment. Then the medium in the corresponding wells, except the control, was replaced with 100 μL of medium containing Z-VAD (10 μM), NSCI (0.1 μM), or VX-765 (10 μM). […] Following another 24-h incubation, CCK-8 reagents were added and interacted with cells at 37° C. for 1 h. The absorbance was measured by a microplate reader (Infinite® M Plex) at the detection wavelength of 450 nm. For blocking assays with DFOM, 5×10^3 cells were seeded in 96-well plates and cultured 24 h for attachment. […] Following another 20-h incubation, CCK-8 reagents were added and interacted with cells at 37° C. for 1 h. The absorbance was measured by a microplate reader (Infinite® M Plex) at the detection wavelength of 450 nm.

[3] = target: T1, apoferritin from equine spleen (Equus caballus, UniProt P02791); test: Isothermal titration calorimetry (ITC) binding to ferritin
T1 construct: the apoferritin from equine spleen (A3660, Sigma-Aldrich) that is not combined with iron was used; purchased Sigma-Aldrich A3660; host or cells: equine spleen (tissue-derived)
T1 sequence (P02791 2-175 limits assumed): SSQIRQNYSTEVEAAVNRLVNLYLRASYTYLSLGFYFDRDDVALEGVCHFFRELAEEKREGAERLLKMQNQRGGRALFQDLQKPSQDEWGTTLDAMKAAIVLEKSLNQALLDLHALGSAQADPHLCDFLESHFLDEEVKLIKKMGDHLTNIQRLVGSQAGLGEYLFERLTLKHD
Experimental: As for the ferritin proteins, the apoferritin from equine spleen (A3660, Sigma-Aldrich) that is not combined with iron was used. Before the ITC test, 1 mL of apoferritin in glycerol solution (50% glycerol and 0.075 M NaCl) was placed in a dialysis bag with a molecular weight cut-off of 3 kDa. The dialysis bags were then immersed in the prepared solution (20 mM Tris-HCl, pH 8.5, and 130 mM NaCl) and stirred at room temperature. The dialysis buffer was changed every 24 h for three times, and the last buffer was collected and 0.05% DMSO was added to serve as the ITC buffer. As for the oleic acid, 12 μM apoferritin in the ITC buffer was placed in the ITC cell, and the syringe was full of 250 μM oleic acid in the same ITC buffer. Besides the first injection with 5 μL of the oleic acid solution, 18 aliquots with 10 μL of the oleic acid solution were titrated into the apoferritin solution with a time interval of 300 s. […] Besides the first injection with 1 μL of the apoferritin solution, 25 aliquots were titrated with a time interval of 300 s. Raw data were corrected for control titrations (the solution in the syringe into the blank ITC buffer in the cell) and integrated using Origin 7.0 (MicroCal). Binding kinetics parameters, including N, Kd, ΔH, and ΔS, were calculated using a single-class binding site model.

B16F10 cells [4] = test: Determination of intracellular free iron content; assay type: cell-based, murine; conditions: 5 μM, 8 h
Experimental: Determination of free iron content: Here, the focus was on detecting the intracellular free iron ions rather than protein-bound iron contents. The procedures for sample preparation were based on a previously reported method. B16F10 cells were seeded in T75 cell culture flasks (2×10^6 cells per well) and cultured for 24 h. […] After incubation for 8 h, cells were harvested and resuspended in 1 mL PBS. Besides, 800 μL of PBS cell suspension was subjected to centrifugation, and 780 μL of the supernatant was carefully removed. Afterward, 280 μL of ultrapure water was added to the cell precipitate. Following shaking at horizontal rotators for 12 h, the supernatant was transferred into 30 KDa ultrafiltration centrifuge tube after twice centrifugation at 2,000 g for 20 min. […] The lysates were centrifuged at 12,000 rpm for 10 min at 4° C., followed by quantification of the total proteins in the supernatant through the BCA assay.
As for iron content determination, 200 μL of the abovementioned filtrates were collected and treated with 10 μL of hydrochloric acid solution (6 mol/L), 100 μL of acetic acid-sodium acetate buffer (pH=4.5), 10 μL of 10% aqueous hydroxylamine hydrochloride, and 100 μL of o-phenanthroline (1 mg/mL). […] The iron ion content could be calculated according to the standard curve. […]

Question: With `CCCCCCCCC=CCCCCCCCC(=O)NCCCC(=O)NC(C(=O)N1CC(O)CC1C(=O)NCc1ccc(-c2scnc2C)cc1)C(C)(C)C` (stereo not drawn) [DeFer-2] as the compound, how does the “solubility in the ITC buffer” value [1] read?
Answer: The value was “relatively low solubility”.

Question: What about the “cytotoxicity against B16F10 cells” value (B16F10 cells [2]) of the same compound?
Answer: The value was “severe cytotoxicity”.

Question: And the IC50 (B16F10 cells [2]; B16-F10, 24 h)?
Answer: Its IC50 is 3.1 µM.

Question: What about the IC50 (B16F10 cells [2]; B16-F10, 48 h) of the same compound?
Answer: Its IC50 is 1.5 µM.

Question: And the Kd [3]?
Answer: The Kd was 17.1 ± 1.96 µM.

Question: And the “intracellular free iron content” value (B16F10 cells [4])?
Answer: The value was “significant elevation”.
